Experimental data as given in patent US20070275911A1, “Targeted Drug-Formaldehyde Conjugates and Methods of Making and Using the Same” (priority 2003, published 2007).
≈ marks a conversion by molar mass, not a printed value. Where two headings read alike, the source gives them in different places. Residues, ends and D or L forms follow the SMILES beside them. *: point of attachment. X1 = NOCC(=O)NCCOCCN*

Legend:
[1] = system: Staphylococcus aureus 8325 (susceptible); conditions: for MIC: 8325 susceptible
[2] = system: Staphylococcus aureus Mu 3 (Hetero VISA)
[3] = system: Staphylococcus aureus IL-F (VISA)
[4] = system: Staphylococcus aureus IL-A (Hetero VISA)
[5] = system: Staphylococcus aureus Mu 50 (VISA); conditions: for MIC: Mu 50 VISA
[6] = cell line not stated; cited from earlier work
[7] = system: Staphylococcus aureus 8325 (susceptible); experiment: microbe, parasite or virus in culture
[8] = system: Staphylococcus aureus IL-A (Hetero VISA); experiment: microbe, parasite or virus in culture
[9] = system: Staphylococcus aureus IL-F (VISA); experiment: microbe, parasite or virus in culture
[10] = system: Staphylococcus aureus Mu 3 (Hetero VISA); experiment: microbe, parasite or virus in culture
[11] = system: Staphylococcus aureus Mu 50 (VISA); experiment: microbe, parasite or virus in culture
[12] = system: MDA-MB-23 1, and BT-20 human breast cancer cells; conditions: cited from earlier work
[13] = system: human breast cancer xenografts; conditions: same time period (10 days); cited from earlier work
[14] = Water solubility and storage stability of RGD constructs
[15] = molecular target: T1, ανβ3 integrin present on viable MDA-MB-435 cells (Homo sapiens, UniProt P05106+P06756); experiment: Vitronectin cell adhesion (competition) assay; format: cell-based
T1 construct: endogenous in cells
Source text: The data are presented as the mean fluorescence for each condition with the background, drug-free cell fluorescence subtracted.

[16] = buffer, pH 7.4; cited from earlier work
[17] = cited from earlier work; for tolerance by mice: doxoform: doses as low as 1 mg/kg, epidoxoform: up to 150% of MTD of doxorubicin
MCF-7/ADR = conditions: resistant MCF-7/ADR; cited from earlier work
MCF-7 = conditions: sensitive MCF-7; cited from earlier work
MDA-MB-435 = experiment: Breast cancer cell growth inhibition, 4 h treatment; conditions: MDA-MB-435 (−/+/−), 4 h treatment
Experimental: (§1) Breast cancer cell growth inhibition: The ER-targeted DOX-formaldehyde conjugates, 11a-c, were evaluated against four breast cancer cell lines that differ in terms of estrogen receptor and multidrug resistance expression. MCF-7 cells are human breast adenocarcinoma cells that express estrogen receptor at a level of 195,000 sites/cell. MCF-7/Adr cells are an ER-negative, doxorubicin-resistant variant of the parent MCF-7 that express the multidrug resistance (MDR) phenotype. MDA-MB-231 and MDA-MB-435 are ER-negative human breast adenocarcinoma and ductal carcinoma cells, respectively. All cytotoxins were formulated as 100× solutions in DMSO/1% AcOH and delivered to cells as 1% DMSO (0.01% AcOH) in cell culture medium. In all experiments cell treatment lasted 4 h.
(§2) In Vitro cellular growth inhibition experiments: The IC50 for the targeted formaldehyde conjugates and all control compounds were performed as previously described with minor modifications. All compounds were solubilized in dimethylsulfoxide containing 1% v/v acetic acid. The concentrations of all 100× DMSO/1% AcOH drug solutions was determined spectrophotometrically by absorbance at 480 nm (ε=[…]). […] For every experiment each drug level and controls were performed in hexuplicate; each experiment was performed in at least duplicate. Error bars represent one standard deviation about the mean for the six wells per lane measured for each drug concentration.

MCF-7/Adr cells = experiment: as above; conditions: MCF-7/Adr (−/+/+), 4 h treatment
Experimental: as §1, §2

MDA-MB-231 = experiment: as above; conditions: MDA-MB-231 (−/+/−), 4 h treatment
Experimental: as §1, §2

MCF-7 cells = experiment: as above; conditions: MCF-7 (ER/AEBS/MDR +/+/−), 4 h treatment
Experimental: as §1, §2

S. aureus ATCC 25723 = conditions: cited from earlier work
3T3 mouse fibroblasts = conditions: cited from earlier work
E. coli ATCC 25922 = conditions: cited from earlier work
P. aeruginosa ATCC 27853 = conditions: cited from earlier work
Human erythrocytes = conditions: cited from earlier work

O=C(NCN1CCN(c2cc3c(cc2F)c(=O)c(C(=O)O)cn3C2CC2)CC1)c1ccccc1O [Ciprosaliform, N-(2-Hydroxybenzamido-methyl)-ciprofloxacin]
MIC ([1]; 24 hr): 1/1 μM
MIC ([1]; 48 hr): 1/1 μM
fold more active than ciprofloxacin ([1]; susceptible strain): 6 fold
MIC ([2]; 24 hr): 4 µM (≈ 1.92 µg/mL)
MIC ([2]; 48 hr): 8 µM (≈ 3.84 µg/mL)
MIC ([3]; 24 hr): 8/8 μM
MIC ([3]; 48 hr): 8/8 μM
MIC ([4]; 24 hr): 8/8 μM
MIC ([4]; 48 hr): 8/8 μM
MIC ([5]; 24 hr): 4 µM (≈ 1.92 µg/mL)
MIC ([5]; 48 hr): 8 µM (≈ 3.84 µg/mL)

C#Cc1cccc(Nc2ncnc3cc(OCCOC)c(OCCOC)cc23)c1 [Tarceva, reference compound]
IC50 [6]: 0.05 µM

O=C(O)c1cn(C2CC2)c2cc(N3CCNCC3)c(F)cc2c1=O [Ciprofloxacin, ciprofloxacin]
MIC ([7]; 24 h): 6 µM (≈ 1.99 µg/mL)
MIC ([7]; 48 h): 12 µM (≈ 3.98 µg/mL)
antibiotic activity ([5]; VISA and hetero VISA strains): inactive

CN[C@H](CC(C)C)C(=O)N[C@H]1C(=O)N[C@@H](CC(N)=O)C(=O)N[C@H]2C(=O)N[C@H]3C(=O)N[C@H](C(=O)N[C@H](C(=O)O)c4cc(O)cc(O)c4-c4cc3ccc4O)[C@H](O)c3ccc(c(Cl)c3)Oc3cc2cc(c3O[C@@H]2O[C@H](CO)[C@@H](O)[C@H](O)[C@H]2O[C@H]2C[C@](C)(N)[C@H](O)[C@H](C)O2)Oc2ccc(cc2Cl)[C@H]1O [Vancomycin, vancomycin]
MIC ([8]; 24 h): 1 µM (≈ 1.45 µg/mL)
MIC ([8]; 48 h): 1 µM (≈ 1.45 µg/mL)
MIC ([9]; 24 h): 3 µM (≈ 4.35 µg/mL)
MIC ([9]; 48 h): 3 µM (≈ 4.35 µg/mL)
MIC ([7]; 24 h): 0.3 µM (≈ 0.435 µg/mL)
MIC ([7]; 48 h): 0.3 µM (≈ 0.435 µg/mL)
MIC ([10]; 24 h): 0.5 µM (≈ 0.725 µg/mL)
MIC ([10]; 48 h): 1 µM (≈ 1.45 µg/mL)
MIC ([11]; 24 h): 4 µM (≈ 5.8 µg/mL)
MIC ([11]; 48 h): 4 µM (≈ 5.8 µg/mL)

O=c1c(-c2ccc(O)cc2)coc2cc(O)cc(O)c12 [genistein]
antitumor activity [12]: 120 µM
IC50 [6]: 120 µM
increase in tumor size [13]: > 200%

RGD-4C: peptide CDCRGDCFC; at b346 the form with disulfide bridges [reference compound]
water solubility [14]: poorly water soluble over a range of pH

N=C(N)NCCC[C@H](NC(=O)[C@H](CS)NC(=O)[C@H](CC(=O)O)NC(=O)[C@@H](N)CS)C(=O)NCC(=O)N[C@@H](CC(=O)O)C(=O)N[C@@H](CS)C(=O)N[C@@H](Cc1ccccc1)C(=O)N[C@@H](CS)C(=O)NCCOCCNC(=O)CON [Acyclic-RGD-4C-tether 3] (H-CDCRGDCFC-X1)
IC50 [15]: 0.001 µM

COc1cccc2c1C(=O)c1c(O)c3c(c(O)c1C2=O)C[C@@](O)(C(=O)CO)C[C@@H]3O[C@H]1C[C@H]2C(OCN3CN2CO[C@H]2[C@@H](C)O[C@@H](O[C@H]4C[C@](O)(C(=O)CO)Cc5c(O)c6c(c(O)c54)C(=O)c4c(OC)cccc4C6=O)C[C@@H]23)[C@H](C)O1 (stereo partly drawn) [epidoxoform]
half-life [16]: 2 h
tolerance by mice [17]: well tolerated
efficacy in mice ([17]; relative to doxorubicin): improved efficacy in mice, relative to doxorubicin

COc1cccc2c1C(=O)c1c(O)c3c(c(O)c1C2=O)C[C@@](O)(C(=O)CO)C[C@@H]3OC1CC2C(OCN2CN2COC3C(C)OC(O[C@H]4C[C@](O)(C(=O)CO)Cc5c(O)c6c(c(O)c54)C(=O)c4c(OC)cccc4C6=O)CC32)C(C)O1 (stereo partly drawn) [doxoform]
times as potent as doxorubicin (MCF-7/ADR): 10,000 times
times as potent as doxorubicin (MCF-7): 250 times
tolerance by mice [17]: poorly tolerated

CC/C(=C(\c1ccc(O)cc1)c1ccc(OCCN(C)C)cc1)c1ccccc1 [compound 12, E/Z-4-Hydroxytamoxifen, reference compound]
IC50 (MDA-MB-435): 20 to 40 µM
IC50 (MCF-7/Adr cells): 20 to 40 µM
IC50 (MDA-MB-231): 20 to 40 µM
IC50 (MCF-7 cells): 0.3 µM

(KLAKKLA)2: antimicrobial peptide (KLAKKLA)2 SEQ ID NO: 3 (microbe homing peptide)
MIC (bacterial lysis) (S. aureus ATCC 25723): 6 µM
sub-lethal concentration (lysis) (3T3 mouse fibroblasts): >272 µM
MIC (bacterial lysis) (E. coli ATCC 25922): 6 µM
MIC (bacterial lysis) (P. aeruginosa ATCC 27853): 3 µM
sub-lethal concentration (lysis) (Human erythrocytes): >750 µM
